These results are taken from paper doi:10.1101/2025.06.24.661388v1 (biorxiv, 2025).

For assay [1], the target named is T1, monoacylglycerol lipase (MAGL), mouse brain (Mus musculus, UniProt O35678).
T1 sequence (O35678 1-303): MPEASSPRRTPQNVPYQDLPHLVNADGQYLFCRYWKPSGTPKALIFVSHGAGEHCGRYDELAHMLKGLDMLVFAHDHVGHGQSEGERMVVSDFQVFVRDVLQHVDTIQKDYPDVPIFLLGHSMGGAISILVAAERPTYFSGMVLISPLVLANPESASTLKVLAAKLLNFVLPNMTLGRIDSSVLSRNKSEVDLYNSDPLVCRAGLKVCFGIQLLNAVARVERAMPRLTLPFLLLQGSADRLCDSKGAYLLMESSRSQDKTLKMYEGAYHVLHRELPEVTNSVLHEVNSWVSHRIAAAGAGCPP
As to the kind of experiment: saturation autoradiography on brain sections. The note with it: labelled compound; [3H]T-401 […]; […] min; cerebral cortex.

For assay [2], the target named is T2, monoacylglycerol lipase (MAGL), human temporal cortex (Homo sapiens, UniProt Q99685).
T2 sequence (Q99685 1-303): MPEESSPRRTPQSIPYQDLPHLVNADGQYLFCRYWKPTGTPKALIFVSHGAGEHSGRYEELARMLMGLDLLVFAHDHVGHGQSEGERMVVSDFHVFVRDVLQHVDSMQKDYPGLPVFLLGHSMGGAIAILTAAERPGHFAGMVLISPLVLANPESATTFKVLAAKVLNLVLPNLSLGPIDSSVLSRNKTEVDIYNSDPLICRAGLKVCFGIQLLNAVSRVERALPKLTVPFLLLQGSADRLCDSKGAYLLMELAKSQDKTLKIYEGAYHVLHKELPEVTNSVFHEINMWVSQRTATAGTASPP
As to the kind of experiment: saturation autoradiography on brain sections. The note with it: labelled compound, [3H]T-401 […] min, room temperature.

The target in assay [3] is T1, monoacylglycerol lipase (MAGL), mouse brain. As to the kind of experiment: displacement autoradiography on brain sections. The following applies: unlabelled T-401 against […] [3H]T-401; hippocampus and cerebral cortex.
In assay [4] the target is T2, monoacylglycerol lipase (MAGL), human temporal cortex. As to the kind of experiment: displacement autoradiography on brain sections. The following applies: unlabelled T-401 against […] [3H]T-401, room temperature.

The Kd is the constant that tells how readily two partners part at equilibrium. Low values mean tighter binding, high ones weaker binding. Broadly, the IC50 is the midpoint of a concentration-inhibition curve. High values mean weaker potency in that assay, low ones greater potency in that assay. Take `Cc1ccnc(F)c1-c1cccc(N2C[C@H](N3CCN(C(=O)c4nccs4)CC3)CC2=O)c1` [T-401, (R)-1-(3-(2-fluoro-4-methylpyridin-3-yl)phenyl)-4-(4-(thiazole-2-carbonyl)piperazin-1-yl)pyrrolidine-2-one]: the Kd in assay [1] stood at 5.8 nM; in assay [2] it was 4.7 ± 0.8 nM. Moreover, the values for the IC50 in assay [3] and in assay [4] were 41 nM and 32 nM, respectively.
